Measurements reported in PubChem BioAssay AID330 (DTP/NCI, 2004).
Values joined by “and” are separate entries in the source; they are usually repeats but may differ in a detail not shown here. Equal entries are not always repeated. Inconclusive results and toxic doses are left out. Rule for the calls: active = survival T/C of 150% or more; inactive = T/C below 125% in these data.

System: P388 leukemia ip, CD2F1 mice, survival T/C
Assay: NCI In Vivo Anticancer Drug Screen. Data for tumor model P388 Leukemia (intraperitoneal) in CD2F1 (CDF1) mice
Conditions: endpoint: median survival time, higher = longer survival
Outline: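 Mice carrying the transplanted tumor received test compound or vehicle. Survival was recorded in each group, and the value is the treated-group measurement divided by that of the vehicle-treated control group.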

[1] = dose: 50.0 mg/kg/injection, schedule: Q01DX009 (ip), vehicle: Klucel (hydroxypropylcellulose) (HPC)
[2] = dose: 100.0 mg/kg/injection, schedule: Q01DX009 (ip), vehicle: Klucel (hydroxypropylcellulose) (HPC)
[3] = dose: 200.0 mg/kg/injection, schedule: Q01DX009 (ip), vehicle: Klucel (hydroxypropylcellulose) (HPC)
[4] = dose: 50.0 mg/kg/injection, schedule: Q01DX009 (ip), vehicle: saline with Tween-80
[5] = dose: 100.0 mg/kg/injection, schedule: Q01DX009 (ip), vehicle: saline with Tween-80
[6] = dose: 200.0 mg/kg/injection, schedule: Q01DX009 (ip), vehicle: saline with Tween-80
[7] = dose: 60.0 mg/kg/injection, schedule: Q01DX005 (ip), vehicle: saline with Tween-80
[8] = dose: 120.0 mg/kg/injection, schedule: Q01DX005 (ip), vehicle: saline with Tween-80
[9] = dose: 240.0 mg/kg/injection, schedule: Q01DX005 (ip), vehicle: saline with Tween-80
[10] = dose: 25.0 mg/kg/injection, schedule: Q01DX009 (ip), vehicle: saline with Tween-80
[11] = dose: 50.0 mg/kg/injection, schedule: Q01DX005 (ip), vehicle: saline with Tween-80
[12] = dose: 100.0 mg/kg/injection, schedule: Q01DX005 (ip), vehicle: saline with Tween-80
[13] = dose: 200.0 mg/kg/injection, schedule: Q01DX005 (ip), vehicle: saline with Tween-80

Measured: T/C

O=S(=O)(Cc1ccccc1)CS(=O)(=O)Cc1ccccc1
inactive: [1] 104 % of control | [2] 106 % of control | [3] 103 % of control | dose: 400.0 mg/kg/injection, schedule: Q01DX009 (ip), vehicle: Klucel (hydroxypropylcellulose) (HPC) 101 % of control

COc1cc(Cc2nnc(NN=C(C)C)[nH]c2=O)cc(OC)c1OC
inactive: dose: 50.0 mg/kg/injection, schedule: Q01DX001 (ip), vehicle: Klucel (hydroxypropylcellulose) (HPC) 115 % of control | dose: 100.0 mg/kg/injection, schedule: Q01DX001 (ip), vehicle: Klucel (hydroxypropylcellulose) (HPC) 98 % of control and 100 % of control | dose: 200.0 mg/kg/injection, schedule: Q01DX001 (ip), vehicle: Klucel (hydroxypropylcellulose) (HPC) 100 % of control and 124 % of control | dose: 400.0 mg/kg/injection, schedule: Q01DX001 (ip), vehicle: Klucel (hydroxypropylcellulose) (HPC) 105 % of control and 116 % of control

C=C(COC(C)=O)[C@H](C)C(=O)C1OCOC(C2CC(=O)NC(=O)C2)[C@@H]1OC(C)=O (some centres undefined)
inactive: dose: 0.01 mg/kg/injection, schedule: Q01DX009 (ip), vehicle: distilled water + alcohol 102 % of control | dose: 0.03 mg/kg/injection, schedule: Q01DX009 (ip), vehicle: distilled water + alcohol 102 % of control | dose: 0.06 mg/kg/injection, schedule: Q01DX009 (ip), vehicle: distilled water + alcohol 102 % of control | dose: 0.12 mg/kg/injection, schedule: Q01DX009 (ip), vehicle: distilled water + alcohol 109 % of control

N#CC(Cc1ccc(Cl)cc1)c1ccccc1 (centres undefined)
inactive: [1] 89 % of control | [2] 95 % of control | [3] 96 % of control

CCCCCCCCCCCCCCCCN(C(C)C)S(=O)(=O)c1ccc(Cl)c([N+](=O)[O-])c1
inactive: dose: 50.0 mg/kg/injection, schedule: Q04DX003 (ip), vehicle: saline sonified 90 % of control | dose: 100.0 mg/kg/injection, schedule: Q04DX003 (ip), vehicle: saline sonified 95 % of control | dose: 200.0 mg/kg/injection, schedule: Q04DX003 (ip), vehicle: saline sonified 95 % of control

O=C1c2c(O)cc(O)cc2OC(c2ccc(O)cc2O)C1O (centres undefined)
inactive: dose: 30.3 mg/kg/injection, schedule: Q01DX009 (ip), vehicle: saline 98 % of control | dose: 60.7 mg/kg/injection, schedule: Q01DX009 (ip), vehicle: saline 100 % of control | dose: 121.4 mg/kg/injection, schedule: Q01DX009 (ip), vehicle: saline 103 % of control

CC1C(O)C2(Oc3cc4c(c5c3[C@@H](CC5O)[C@H]2C)CCC2Cc3nc5c(nc3C[C@@]42C)CC2CCC3C4=C[C@H]6O[C@@]7(O[C@@](C)(CO)C[C@@H]7O)C(C)[C@@]6(O)[C@]4(C)[C@@H](O)CC3[C@]2(C)C5)OC1(C)C (some centres undefined)
inactive: dose: 12.5 micrograms/kg/injection, schedule: Q01DX009 (ip), vehicle: saline + alcohol 107 % of control | dose: 25.0 micrograms/kg/injection, schedule: Q01DX009 (ip), vehicle: saline + alcohol 100 % of control | dose: 50.0 micrograms/kg/injection, schedule: Q01DX009 (ip), vehicle: saline + alcohol 107 % of control | dose: 100.0 micrograms/kg/injection, schedule: Q01DX009 (ip), vehicle: saline + alcohol 109 % of control

O=C(NNC(=O)c1ccccc1O)Nc1ccc(Cl)cc1C(F)(F)F
inactive: [4] 103 % of control | [5] 106 % of control | [6] 100 % of control

Clc1ccc(Cc2nc3ccccc3s2)cc1
inactive: [7] 106 % of control | [8] 121 % of control

Nc1nnc(Cc2cccc3ccccc23)o1
inactive: [7] 109 % of control | [8] 106 % of control | [9] 103 % of control

CCOC(=O)c1cnc2ncccn12
inactive: [1] 99 % of control | [2] 101 % of control | [3] 91 % of control

C=C1C(=O)C23[C@H](O)C1CC[C@H]2[C@]12COC3(O)[C@@H](O)[C@@H]1C(C)(C)CC[C@@H]2O
inactive: dose: 6.25 mg/kg/injection, schedule: Q01DX009 (ip), vehicle: saline with Tween-80 113 % of control | dose: 8.0 mg/kg/injection, schedule: Q01DX009 (ip), vehicle: saline with Tween-80 106 % of control | dose: 9.0 mg/kg/injection, schedule: Q01DX009 (ip), vehicle: saline with Tween-80 117 % of control | dose: 12.5 mg/kg/injection, schedule: Q01DX009 (ip), vehicle: saline with Tween-80 104 % of control | [10] 104 % of control | dose: 27.0 mg/kg/injection, schedule: Q01DX009 (ip), vehicle: saline with Tween-80 121 % of control

COC(=O)c1[nH]c(=S)[nH]c(=O)c1C
inactive: [11] 89 % of control | [12] 97 % of control

O=C1NC(=O)C(c2ccccc2)(c2ccccc2)N1CCS
inactive: dose: 12.5 mg/kg/injection, schedule: Q04DX003 (ip), vehicle: saline 108 % of control | dose: 25.0 mg/kg/injection, schedule: Q04DX003 (ip), vehicle: Klucel (hydroxypropylcellulose) (HPC) 98 % of control and 108 % of control | dose: 25.0 mg/kg/injection, schedule: Q04DX003 (ip), vehicle: saline 100 % of control | dose: 50.0 mg/kg/injection, schedule: Q04DX003 (ip), vehicle: Klucel (hydroxypropylcellulose) (HPC) 98 % of control and 99 % of control | dose: 50.0 mg/kg/injection, schedule: Q04DX003 (ip), vehicle: saline 104 % of control | dose: 100.0 mg/kg/injection, schedule: Q04DX003 (ip), vehicle: Klucel (hydroxypropylcellulose) (HPC) 97 % of control | dose: 100.0 mg/kg/injection, schedule: Q04DX003 (ip), vehicle: saline 108 % of control | dose: 200.0 mg/kg/injection, schedule: Q04DX003 (ip), vehicle: Klucel (hydroxypropylcellulose) (HPC) 100 % of control and 117 % of control | dose: 200.0 mg/kg/injection, schedule: Q04DX003 (ip), vehicle: saline 94 % of control | dose: 400.0 mg/kg/injection, schedule: Q04DX003 (ip), vehicle: Klucel (hydroxypropylcellulose) (HPC) 106 % of control and 109 % of control

Cc1ccc(N2C(=O)C3CSCN3C2=O)cc1 (centres undefined)
inactive: [7] 101 % of control | [8] 97 % of control | [9] 92 % of control

CCN(Cc1cccc(S(=O)(=O)O)c1)c1ccc(C(=C2C=CC(=[N+](CC)Cc3cccc(S(=O)(=O)O)c3)C=C2)c2ccc(O)cc2S(=O)(=O)O)cc1
inactive: [7] 107 % of control | [8] 98 % of control | [9] 107 % of control

Fc1c(F)c(F)c(CCc2c(F)c(F)c(F)c(F)c2F)c(F)c1F
inactive: [7] 99 % of control | [8] 89 % of control | [9] 88 % of control

CCOc1c(N=Nc2ccc(Br)cc2)c(C)nn1C(=S)S
inactive: dose: 60.0 mg/kg/injection, schedule: Q01DX005 (ip), vehicle: Klucel (hydroxypropylcellulose) (HPC) 105 % of control | dose: 120.0 mg/kg/injection, schedule: Q01DX005 (ip), vehicle: Klucel (hydroxypropylcellulose) (HPC) 109 % of control

Cc1ccc(S(=O)(=O)NC(CCCNC(=O)OCc2ccccc2)C(=O)O)cc1 (centres undefined)
inactive: dose: 50.0 mg/kg/injection, schedule: Q01DX005 (ip), vehicle: Klucel (hydroxypropylcellulose) (HPC) 100 % of control | dose: 100.0 mg/kg/injection, schedule: Q01DX005 (ip), vehicle: Klucel (hydroxypropylcellulose) (HPC) 99 % of control | dose: 200.0 mg/kg/injection, schedule: Q01DX005 (ip), vehicle: Klucel (hydroxypropylcellulose) (HPC) 96 % of control

CC(C)(C)OC(=O)NC1CN(OCc2ccccc2)C1=O (centres undefined)
inactive: [11] 100 % of control | [12] 94 % of control | [13] 89 % of control

CCCC(=O)ON(C)C(=O)CCC
inactive: [12] 96 % of control | [13] 105 % of control | dose: 400.0 mg/kg/injection, schedule: Q01DX005 (ip), vehicle: saline with Tween-80 117 % of control

CCCCCSSSCCCCC
inactive: dose: 50.0 mg/kg/injection, schedule: Q01DX009 (ip), vehicle: saline 101 % of control | dose: 100.0 mg/kg/injection, schedule: Q01DX009 (ip), vehicle: saline 96 % of control | dose: 200.0 mg/kg/injection, schedule: Q01DX009 (ip), vehicle: saline 104 % of control

COc1ccc(OC)c(CC(C)N)c1 (centres undefined)
inactive: dose: 60.0 mg/kg/injection, schedule: Q01DX005 (ip), vehicle: saline 98 % of control | dose: 120.0 mg/kg/injection, schedule: Q01DX005 (ip), vehicle: saline 93 % of control

Nc1nnnn1CCCl
inactive: [11] 94 % of control | [12] 103 % of control | [13] 106 % of control

CC(C)(Cc1ccccc1)C(=C=C=C=C(c1ccccc1)C(C)(C)Cc1ccccc1)c1ccccc1
inactive: dose: 25.0 mg/kg/injection, schedule: Q01DX009 (ip), vehicle: Klucel (hydroxypropylcellulose) (HPC) 101 % of control | [1] 99 % of control | [2] 92 % of control

Cc1ccc2[nH]c(=S)[nH]c2c1
inactive: [10] 95 % of control | [4] 94 % of control | [5] 96 % of control | [6] 93 % of control
